IC50 data for 21 molecules are collected here from patent US10086085B2, “Bifunctional cytotoxic agents” (priority 2014, dated 2018).

Assay [1] deals with N87 (human gastric carcinoma derived from metastatic liver site). As to the kind of experiment: Cytotoxicity assay for payloads (MTS), N87 cells. The class given is cell-based. The note with it: N87 cells, incubated with compounds for four days, MTS absorbance 490 nm, read-out: N87 IC50. How it is done:
(§1) Cancer cell lines were obtained from ATCC (Manassas, Va.). N87 (human gastric carcinoma derived from metastatic liver site). HL60 (leukemia), A375 (melanoma) and HUVEC (human umbilical vein endothelial cells). were grown in RPMI 1640 media. All media were supplemented with 10% fetal bovine serum, 1% sodium pyruvate, and 1% L-glutamine (Invitrogen, Grand Island, N.Y.). Human umbilical vein endothelial cells (HUVEC) were obtained from Lonza (Allendale, N.J.) and maintained in EGM2 media supplemented with EGM-2 SingleQuots (Lonza # CC-4176). All cells were maintained in a humidified incubator (37° C., 5% CO2).
(§2) Cells in 100 μl medium were cultured in a 96-well plate. Cancer cell lines treated with the indicated compounds by adding 50 μl of 3× stocks in duplicate at 10 concentrations. Cells were incubated with compounds for four days, then 30 μl of CellTiter® 96 AQueous One MTS Solution (Promega Cat # G3582) was added to the cells, incubated 1.5 hr at 37° C., then absorbance measured at 490 nm on a Victor plate reader (Perkin Elmer, Waltham, Mass.). Relative cell viability was determined as a percentage of untreated control wells. IC50 values were calculated using four parameter logistic model #203 with XLfit v4.2 (IDBS, Guildford, Surry, UK).

The test system of the next assay is HL60 (leukemia). In words: Cytotoxicity assay for payloads (MTS), HL-60 cells. The class given is cell-based. The note with it: incubated with compounds for four days, MTS absorbance 490 nm. The method, then:
as §1, §2

Read-outs that look alike come from different tables or passages of the source. Bounds are passed on as bounds.

As a reminder, the IC50 is the point on the concentration scale where inhibition reaches its midpoint. On to `O=C(c1ccc(C(=O)N2C[C@@H](CCl)c3c2cc(O)c2ccccc32)o1)N1C[C@@H](CCl)c2c1cc(O)c1ccccc21` [Compound 13, (S)-furan-2,5-diylbis(((S)-1-(chloromethyl)-5-hydroxy-1H-benzo[e]indol-3(2H)-yl)methanone)], for which the IC50 in assay [1] (Homo sapiens, 96 h) was found to be 0.138 nM; in the assay on HL60 (leukemia) (Homo sapiens, 96 h), 0.014 nM.

Consider `O=C([C@@H]1CCC[C@H](C(=O)N2C[C@@H](CCl)c3c2cc(O)c2ccccc32)C1)N1C[C@@H](CCl)c2c1cc(O)c1ccccc21` [Compound 16, (S)-((1R,3S)-cyclohexane-1,3-diyl)bis(((S)-1-(chloromethyl)-5-hydroxy-1H-benzo[e]indol-3(2H)-yl)methanone)], for which the concentration for half-maximal inhibition (IC50) worked out at 1.76 nM in assay [1] (Homo sapiens, 96 h) and 0.163 nM in the assay on HL60 (leukemia) (Homo sapiens, 96 h).

As to `O=C(c1cccc(C(=O)N2C[C@@H](CCl)c3c2cc(O)c2ccccc32)n1)N1C[C@@H](CCl)c2c1cc(O)c1ccccc21` [Compound 18, (S)-pyridine-2,6-diylbis(((S)-1-(chloromethyl)-5-hydroxy-1H-benzo[e]indol-3(2H)-yl)methanone)], the 50% inhibitory concentration (IC50) in assay [1] (Homo sapiens, 96 h) worked out at 174 nM; in the assay on HL60 (leukemia) (Homo sapiens, 96 h), 2.19 nM.

Take `O=C(c1cccc(C(=O)N2C[C@@H](CCl)c3c2cc(O)c2ccccc32)c1)N1C[C@@H](CCl)c2c1cc(O)c1ccccc21` [Compound 20, (S)-1,3-phenylenebis(((S)-1-(chloromethyl)-5-hydroxy-1H-benzo[e]indol-3(2H)-yl)methanone)]: the IC50 in assay [1] (Homo sapiens, 96 h) turned out to be 297 nM; in the assay on HL60 (leukemia) (Homo sapiens, 96 h), 1.62 nM.

Regarding `O=C(CCSCCC(=O)N1C[C@@H](CCl)c2c1cc(O)c1ccccc21)N1C[C@@H](CCl)c2c1cc(O)c1ccccc21` [Compound 23, (S)-3,3′-thiobis(1-((S)-1-(chloromethyl)-5-hydroxy-1H-benzo[e]indol-3(2H)-yl)propan-1-one)], the IC50 came out at 0.252 nM in assay [1] (Homo sapiens, 96 h) and 0.072 nM with HL60 (leukemia) (Homo sapiens, 96 h).

`O=C(c1ccc(C(=O)N2C[C@@H](CCl)c3c2cc(O)c2ccccc32)s1)N1C[C@@H](CCl)c2c1cc(O)c1ccccc21` [Compound 29, (S)-thiophene-2,5-diylbis(((S)-1-(chloromethyl)-5-hydroxy-1H-benzo[e]indol-3(2H)-yl)methanone)]: the IC50 in assay [1] (Homo sapiens, 96 h) is 0.009 nM; in the assay with HL60 (leukemia) (Homo sapiens, 96 h) it was less than 0.001 nM.

In the case of `O=C(c1ccc(C(=O)N2C[C@@H](CCl)c3c2cc(O)c2ccccc32)[nH]1)N1C[C@@H](CCl)c2c1cc(O)c1ccccc21` [Compound 32, (S)-(1H-pyrrole-2,5-diyl)bis(((S)-1-(chloromethyl)-5-hydroxy-1H-benzo[e]indol-3(2H)-yl)methanone)], the IC50 in assay [1] (Homo sapiens, 96 h) stood at 0.052 nM; with HL60 (leukemia) (Homo sapiens, 96 h) it was 0.005 nM.

As to `NC(CC(=O)N1C[C@@H](CCl)c2c1cc(O)c1ccccc21)CC(=O)N1C[C@@H](CCl)c2c1cc(O)c1ccccc21` [Compound 40, 3-Amino-1,5-bis-((S)-1-chloromethyl-5-hydroxy-1,2-dihydro-enzo[e]indol-3-yl)-pentane-1,5-dione], the half-inhibitory concentration (IC50) in assay [1] (Homo sapiens, 96 h) is 1.88 nM; in the assay on HL60 (leukemia) (Homo sapiens, 96 h) it was 0.177 nM.

Regarding `Nc1cccc(C(CC(=O)N2C[C@@H](CCl)c3c2cc(O)c2ccccc32)CC(=O)N2C[C@@H](CCl)c3c2cc(O)c2ccccc32)c1` [Compound 44, 3-(3-Amino-phenyl)-1,5-bis-((S)-1-chloromethyl-5-hydroxy-1,2-dihydro-benzo[e]indol-3-yl)-pentane-1,5-dione], the IC50 is not below 10 nM in assay [1] (Homo sapiens, 96 h) and 5.29 nM with HL60 (leukemia) (Homo sapiens, 96 h).

With `Nc1ccc(C(CC(=O)N2C[C@@H](CCl)c3c2cc(O)c2ccccc32)CC(=O)N2C[C@@H](CCl)c3c2cc(O)c2ccccc32)cc1` [Compound 48, 3-(4-Amino-phenyl)-1,5-bis-((S)-1-chloromethyl-5-hydroxy-1,2-dihydro-benzo[e]indol-3-yl)-pentane-1,5-dione], the IC50 in assay [1] (Homo sapiens, 96 h) turned out to be 12.2 nM; in the assay with HL60 (leukemia) (Homo sapiens, 96 h), 1.75 nM.

For the molecule `Nc1ccc(CCC(=O)N(CC(=O)N2C[C@@H](CCl)c3c2cc(O)c2ccccc32)CC(=O)N2C[C@@H](CCl)c3c2cc(O)c2ccccc32)cc1` [Compound 56, 3-(4-Amino-phenyl)-N,N-bis-[2-((S)-1-chloromethyl-5-hydroxy-1,2-dihydro-benzo[e]indol-3-yl)-2-oxo-ethyl]-propionamide], the IC50 was not below 100 nM in assay [1] (Homo sapiens, 96 h) and 6.93 nM in the assay on HL60 (leukemia) (Homo sapiens, 96 h).

As for `O=C(CCNC(=O)N1C[C@@H](CCl)c2c1cc(O)c1ccccc21)N1C[C@@H](CCl)c2c1cc(O)c1ccccc21` [Compound 65, (S)-1-Chloromethyl-5-hydroxy-1,2-dihydro-benzo[e]indole-3-carboxylic acid [3-((S)-1-chloromethyl-5-hydroxy-1,2-dihydro-benzo[e]indol-3-yl)-3-oxo-propyl]-amide], the IC50 was determined as 0.554 nM in assay [1] (Homo sapiens, 96 h) and 0.004 nM in the assay with HL60 (leukemia) (Homo sapiens, 96 h).

Regarding `CC(=O)Oc1cc2c(c3ccccc13)[C@H](CCl)CN2C(=O)c1cc(C(=O)N2C[C@@H](CCl)c3c2cc(OC(C)=O)c2ccccc32)n(C)n1` [Compound 74, acetic acid (S)-3-[5-((S)-5-acetoxy-1-chloromethyl-1,2-dihydro-benzo[e]indole-3-carbonyl)-1-methyl-1H-pyrazole-3-carbonyl]-1-chloromethyl-2,3-dihydro-1H-benzo[e]indol-5-yl ester], the IC50 came out at 76.5 nM in assay [1] (Homo sapiens, 96 h) and 7.49 nM with HL60 (leukemia) (Homo sapiens, 96 h).

Regarding `CC(=O)Oc1cc2c(c3ccccc13)[C@H](CCl)CN2C(=O)C12CCC(C(=O)N3C[C@@H](CCl)c4c3cc(OC(C)=O)c3ccccc43)(CC1)N2` [Compound 79, 7-azabicyclo[2.2.1]heptane-1,4-diylbis[carbonyl(1S)-1-(chloromethyl)-1,2-dihydro-3H-benzo[e]indole-3,5-diyl]diacetate], the IC50 worked out at 7.96 nM in assay [1] and 0.496 nM in the assay on HL60 (leukemia).

`CC(=O)Oc1cc2c(c3ccccc13)[C@H](CCl)CN2C(=O)C12CCC(C(=O)N3C[C@@H](CCl)c4c3cc(OC(C)=O)c3ccccc43)(C1)C2` [Compound 82, (1S,4S)-bicyclo[2.1.1]hexane-1,4-diylbis[carbonyl(1S)-1-(chloromethyl)-1,2-dihydro-3H-benzo[e]indole-3,5-diyl]diacetate]: the IC50 was 3.24 nM in assay [1] (Homo sapiens, 96 h) and 0.359 nM with HL60 (leukemia) (Homo sapiens, 96 h).

Take `CC(=O)Oc1cc2c(c3c(C)c[nH]c13)[C@H](CCl)CN2C(=O)C12CCC(C(=O)N3C[C@@H](CCl)c4c3cc(OC(C)=O)c3[nH]cc(C)c43)(CC1)CC2` [Compound 85, bicyclo[2.2.2]octane-1,4-diylbis[carbonyl(1S)-1-(chloromethyl)-8-methyl-1,6-dihydropyrrolo[3,2-e]indole-3,5(2H)-diyl]diacetate]: the IC50 in assay [1] (Homo sapiens, 96 h) was 0.053 nM; with HL60 (leukemia) (Homo sapiens, 96 h) it was 0.005 nM.

Turning to `CC(=O)Oc1cc2c(c3c(C)c[nH]c13)[C@H](CCl)CN2C(=O)C12CCC(C(=O)N3C[C@@H](CCl)c4c3cc(OC(C)=O)c3[nH]cc(C)c43)(CC1)C2` [Compound 88, bicyclo[2.2.1]heptane-1,4-diylbis[carbonyl(1S)-1-(chloromethyl)-8-methyl-1,6-dihydropyrrolo[3,2-e]indole-3,5(2H)-diyl]diacetate], the half-inhibitory concentration (IC50) in assay [1] (Homo sapiens, 96 h) was 0.502 nM; with HL60 (leukemia) (Homo sapiens, 96 h), 0.022 nM.

For `CC(=O)Oc1cc2c(c3c(C)c[nH]c13)[C@H](CCl)CN2C(=O)C12CC(C(=O)N3C[C@@H](CCl)c4c3cc(OC(C)=O)c3[nH]cc(C)c43)(C1)C2` [Compound 91, bicyclo[1.1.1]pentane-1,3-diylbis[carbonyl(1S)-1-(chloromethyl)-8-methyl-1,6-dihydropyrrolo[3,2-e]indole-3,5(2H)-diyl]diacetate], the IC50 in assay [1] (Homo sapiens, 96 h) turned out to be 0.057 nM; with HL60 (leukemia) (Homo sapiens, 96 h), 0.004 nM.

Take `CC(=O)Oc1cc2c(c3c(C)c[nH]c13)[C@H](CCl)CN2C(=O)CC12CC(C(=O)N3C[C@@H](CCl)c4c3cc(OC(C)=O)c3[nH]cc(C)c43)(C1)C2` [Compound 97, (8S)-6-[(3-{[(1S)-5-(acetyloxy)-1-(chloromethyl)-8-methyl-1,6-dihydropyrrolo[3,2-e]indol-3(2H)-yl]carbonyl}bicyclo[1.1.1]pent-1-yl)acetyl]-8-(chloromethyl)-1-methyl-3,6,7,8-tetrahydropyrrolo[3,2-e]indol-4-yl acetate]: the IC50 in assay [1] (Homo sapiens, 96 h) stood at 0.222 nM; in the assay on HL60 (leukemia) (Homo sapiens, 96 h), 0.009 nM.

Turning to `CC(=O)Nc1ccc2c(OC(C)=O)cc3c(c2c1)[C@@H](CCl)CN3C(=O)C12CC(C(=O)N3C[C@@H](CCl)c4c3cc(OC(C)=O)c3ccccc43)(C1)C2` [Compound 108, (1R)-8-(acetylamino)-3-[(3-{[(1S)-5-(acetyloxy)-1-(chloromethyl)-1,2-dihydro-3H-benzo[e]indol-3-yl]carbonyl}bicyclo[1.1.1]pent-1-yl)carbonyl]-1-(chloromethyl)-1,2-dihydro-3H-benzo[e]indol-5-yl acetate], the IC50 in assay [1] (Homo sapiens, 96 h) was found to be 3.98 nM; in the assay with HL60 (leukemia) (Homo sapiens, 96 h), 0.431 nM.

As for `CC(=O)Nc1ccc2c(OC(C)=O)cc3c(c2c1)[C@H](CCl)CN3C(=O)C12CC(C(=O)N3C[C@@H](CCl)c4c3cc(OC(C)=O)c3ccccc43)(C1)C2` [Compound 109, (1S)-3-[(3-{[(1S)-8-(acetylamino)-5-(acetyloxy)-1-(chloromethyl)-1,2-dihydro-3H-benzo[e]indol-3-yl]carbonyl}bicyclo[1.1.1]pent-1-yl)carbonyl]-1-(chloromethyl)-2,3-dihydro-1H-benzo[e]indol-5-yl acetate], the half-inhibitory concentration (IC50) in assay [1] (Homo sapiens, 96 h) was 2.3 nM; in the assay on HL60 (leukemia) (Homo sapiens, 96 h), 0.095 nM.
